Consider six compounds from US4962111A (priority 1989, dated 1990).

Each structure is given as a SMILES string. In brackets after ≈: the same amount, converted by molar mass. Several values for one entry are separate records, joined by “and”; a condition that tells them apart may be missing. Equal values may be shown once.

The subject of one assay is M. tb. 311. The experiment in a line: microbe, parasite or virus in culture. The format is cell-based. As to conditions: Mycobacterium tuberculosis, 99% (2 log) inhibition, pH 5.8.
The subject of assay [1] is Mycobacterium tuberculosis (laboratory mutant, nitrosoguanidine induced, resistant to pyrazinamide). Type of assay: cell-based. Also noted: MIC: unit not given beside the values. As to conditions: for MIC: pH 5.8.
The test system of assay [2] is Mycobacterium tuberculosis (laboratory mutant, nitrosoguanidine induced, resistant to pyrazinoic acid). Type of assay: cell-based. Further details: MIC: unit not given beside the values.
Assay [3] deals with Mycobacterial populations. The conditions noted are these: cited from earlier work.

As for `C=CCOC(=O)c1cnccn1` [Allyl Pyrazinoate], the MIC in the assay with M. tb. 311 is 6.25 µg/mL (≈ 38.1 µM).

Regarding `CCCOC(=O)c1cnccn1` [n-Propyl Pyrazinoate], the MIC is 12.5 and 6.25 in assay [1]; 6.25 µg/mL (≈ 37.6 µM) with M. tb. 311.

As for `Cc1ccc(OC(=O)c2cnccn2)cc1` [p-Tolyl Pyrazinoate], the MIC is 12.5 and 25 in assay [1]; 12.5 and 6.25 in assay [2] (pH 5.8); 12.5 µg/mL (≈ 58.4 µM) against M. tb. 311.

Consider `Nc1ccc(C(=O)O)c(O)c1` [p-aminosalicylic acid], for which the “suppression of emergence of resistance” value in assay [3] (combination with streptomycin) is listed as “can delay development of streptomycin resistance”.

In the case of `NC(=O)c1cnccn1` [pyrazinamide], the “concentration required to achieve a 99% inhibition of growth” value in assay [1] and in assay [2] was greater than 200 µg/mL throughout. In assay [3] (when used alone), the development of resistance result is “resistance develops quickly”. The MIC with M. tb. 311 was greater than 200 µg/mL.

`O=C(OCC(F)(F)F)c1cnccn1` [β, β, β-Trifluoroethyl Pyrazinoate]: the MIC in the assay on M. tb. 311 turned out to be 25 µg/mL (≈ 121 µM).
